Data as given in US20230139445A1, “BACTERIAL CELLS WITH IMPROVED TOLERANCE TO DIACIDS” (priority 2016, published 2023).
Read-outs that look alike come from different tables or passages of the source.

Legend:
[1] = system: Escherichia coli K-12 MG1655 and evolved isolates; type: cell-based; settings: 55 g/L malic acid
Summary of the method: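 Wild-type MG1655 and evolved isolates, precultured overnight in M9 + 1% glucose at 37 °C, were diluted into M9 + 1% glucose. Growth at 37 °C, 225 rpm, scanned every 15 min; pixel values calibrated to OD600. Diacids tested as sodium salts or neutralized to pH 7.0.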

[2] = system: Escherichia coli K-12 MG1655; assay: Growth of K-12 MG1655 in varying concentrations of fumaric, itaconic, malic and succinic acid, Growth Profiler; type: cell-based
Description: Five colonies from wild-type K-12 MG1655 and 10 individual colonies deriving from each population were inoculated into 300 μL M9+1% glucose in 96 well deepwell plates and incubated in a 300 rpm plate shaker at 37° C. The next day, cells were diluted 10× in M9+1% glucose and 30 μL was transferred into clear-bottomed 96 well half-deepwell plates (with rectangular wells) containing M9+1% glucose and M9+1% glucose+52.78 g/L glutaric acid or 55.56 g/L adipic acid, such that the final concentration of glutaric acid or adipic acid was 47.5 g/L or 50 g/L, respectively. In addition, cryogenic glycerol stocks of the overnight culture were saved in a 96 well plate format. Half deepwell plates were incubated at 37° C. with 225 rpm shaking in a Growth Profiler (Enzyscreen), with optical scans of the plates taken at 15 minute intervals. Green pixel values integrated over a 1 mm diameter circular area in each well were converted to OD600 values using a previously determined calibration between OD600 and green pixel values.
Additionally, each evolved isolate was tested for cross-tolerance toward other dicarboxylic acids of interest. […] All diacids tested were either the neutral sodium salts, or the free diacid was neutralized with sodium hydroxide to pH 7.0 for testing.

O=C(O)CC(O)C(=O)O (centres unmarked) [malic acid]
growth rate μ (mean) ([1]; strain ADIP1-1): 0.333 h⁻¹ | lag time tlag (mean) ([1]; strain ADIP1-1): 12.8 h | growth rate μ (mean) ([1]; strain ADIP1-9): 0.336 h⁻¹ | lag time tlag (mean) ([1]; strain ADIP1-9): 10.7 h | growth rate μ (mean) ([1]; strain ADIP2-5): 0.338 h⁻¹ | lag time tlag (mean) ([1]; strain ADIP2-5): 17.9 h | growth rate μ (mean) ([1]; strain ADIP2-6): 0.348 h⁻¹ | lag time tlag (mean) ([1]; strain ADIP2-6): 16.8 h | growth rate μ (mean) ([1]; strain ADIP2-10): 0.347 h⁻¹ | lag time tlag (mean) ([1]; strain ADIP2-10): 16.8 h | growth rate μ (mean) ([1]; strain ADIP3-2): 0.318 h⁻¹ | lag time tlag (mean) ([1]; strain ADIP3-2): 10.7 h | growth rate μ (mean) ([1]; strain ADIP3-4): 0.347 h⁻¹ | lag time tlag (mean) ([1]; strain ADIP3-4): 9.9 h | growth rate μ (mean) ([1]; strain ADIP3-8): 0.329 h⁻¹ | lag time tlag (mean) ([1]; strain ADIP3-8): 11.4 h | growth rate μ (mean) ([1]; strain ADIP4-1): 0.275 h⁻¹ | lag time tlag (mean) ([1]; strain ADIP4-1): 12.1 h | growth rate μ (mean) ([1]; strain ADIP4-8): 0.238 h⁻¹ | lag time tlag (mean) ([1]; strain ADIP4-8): 13.4 h | growth rate μ (mean) ([1]; strain ADIP5-2): 0.299 h⁻¹ | lag time tlag (mean) ([1]; strain ADIP5-2): 10.1 h | growth rate μ (mean) ([1]; strain ADIP5-6): 0.404 h⁻¹ | lag time tlag (mean) ([1]; strain ADIP5-6): 10.2 h | growth rate μ (mean) ([1]; strain ADIP6-3): 0.295 h⁻¹ | lag time tlag (mean) ([1]; strain ADIP6-3): 11.6 h | growth rate μ (mean) ([1]; strain ADIP6-9): 0.250 h⁻¹ | lag time tlag (mean) ([1]; strain ADIP6-9): 12.7 h | growth rate μ (mean) ([1]; strain ADIP6-10): 0.323 h⁻¹ | lag time tlag (mean) ([1]; strain ADIP6-10): 10.0 h | growth rate μ (mean) ([1]; strain ADIP7-2): 0.329 h⁻¹ | lag time tlag (mean) ([1]; strain ADIP7-2): 10.3 h | growth rate μ (mean) ([1]; strain ADIP7-5): 0.326 h⁻¹ | lag time tlag (mean) ([1]; strain ADIP7-5): 10.2 h | growth rate μ (mean) ([1]; strain ADIP8-3): 0.194 h⁻¹ | lag time tlag (mean) ([1]; strain ADIP8-3): 14.4 h | growth rate μ (mean) ([1]; strain ADIP8-7): 0.202 h⁻¹ | lag time tlag (mean) ([1]; strain ADIP8-7): 14.9 h | growth rate μ (mean) ([1]; strain ADIP8-10): 0.202 h⁻¹ | lag time tlag (mean) ([1]; strain ADIP8-10): 14.2 h | growth rate μ (mean) ([1]; strain GLUT1-3): 0.294 h⁻¹ | lag time tlag (mean) ([1]; strain GLUT1-3): 13.5 h | growth rate μ (mean) ([1]; strain GLUT1-9): 0.259 h⁻¹ | lag time tlag (mean) ([1]; strain GLUT1-9): 15.3 h | growth rate μ (mean) ([1]; strain GLUT1-10): 0.286 h⁻¹ | lag time tlag (mean) ([1]; strain GLUT1-10): 19.2 h | growth rate μ (mean) ([1]; strain GLUT2-1): 0.273 h⁻¹ | lag time tlag (mean) ([1]; strain GLUT2-1): 13.7 h | growth rate μ (mean) ([1]; strain GLUT2-9): 0.270 h⁻¹ | lag time tlag (mean) ([1]; strain GLUT2-9): 12.5 h | growth rate μ (mean) ([1]; strain GLUT2-10): 0.282 h⁻¹ | lag time tlag (mean) ([1]; strain GLUT2-10): 12.2 h | growth rate μ (mean) ([1]; strain GLUT3-5): 0.257 h⁻¹ | lag time tlag (mean) ([1]; strain GLUT3-5): 15.4 h | growth rate μ (mean) ([1]; strain GLUT3-7): 0.234 h⁻¹ | lag time tlag (mean) ([1]; strain GLUT3-7): 15.5 h | growth rate μ (mean) ([1]; strain GLUT3-9): 0.252 h⁻¹ | lag time tlag (mean) ([1]; strain GLUT3-9): 20.5 h | growth rate μ (mean) ([1]; strain GLUT4-1): 0.264 h⁻¹ | lag time tlag (mean) ([1]; strain GLUT4-1): 15.9 h | growth rate μ (mean) ([1]; strain GLUT4-4): 0.264 h⁻¹ | lag time tlag (mean) ([1]; strain GLUT4-4): 16.5 h | growth rate μ (mean) ([1]; strain GLUT4-10): 0.250 h⁻¹ | lag time tlag (mean) ([1]; strain GLUT4-10): 15.6 h | growth rate μ (mean) ([1]; strain GLUT5-4): 0.272 h⁻¹ | lag time tlag (mean) ([1]; strain GLUT5-4): 15.3 h | growth rate μ (mean) ([1]; strain GLUT5-5): 0.275 h⁻¹ | lag time tlag (mean) ([1]; strain GLUT5-5): 16.6 h | growth rate μ (mean) ([1]; strain GLUT5-9): 0.246 h⁻¹ | lag time tlag (mean) ([1]; strain GLUT5-9): 16.4 h | growth rate μ (mean) ([1]; strain GLUT6-4): 0.251 h⁻¹ | lag time tlag (mean) ([1]; strain GLUT6-4): 14.5 h | growth rate μ (mean) ([1]; strain GLUT6-5): 0.241 h⁻¹ | lag time tlag (mean) ([1]; strain GLUT6-5): 13.8 h | growth rate μ (mean) ([1]; strain GLUT6-10): 0.245 h⁻¹ | lag time tlag (mean) ([1]; strain GLUT6-10): 14.8 h | growth rate μ (mean) ([1]; strain GLUT7-2): 0.275 h⁻¹ | lag time tlag (mean) ([1]; strain GLUT7-2): 16.1 h | growth rate μ (mean) ([1]; strain GLUT7-6): 0.247 h⁻¹ | lag time tlag (mean) ([1]; strain GLUT7-6): 21.9 h | growth rate μ (mean) ([1]; strain GLUT7-7): 0.185 h⁻¹ | lag time tlag (mean) ([1]; strain GLUT7-7): 19.1 h | growth rate μ (mean) ([1]; strain GLUT8-5): 0.180 h⁻¹ | lag time tlag (mean) ([1]; strain GLUT8-5): 15.8 h | growth rate μ (mean) ([1]; strain GLUT8-6): 0.208 h⁻¹ | lag time tlag (mean) ([1]; strain GLUT8-6): 32.7 h | growth rate μ (mean) ([1]; strain GLUT8-9): 0.192 h⁻¹ | lag time tlag (mean) ([1]; strain GLUT8-9): 47.7 h | growth rate μ (mean) ([1]; strain MG1655 (Table 26)): 0.235 h⁻¹ | lag time tlag (mean) ([1]; strain MG1655 (Table 26)): 17.1 h | growth rate μ (mean) ([1]; strain MG1655 (Table 27)): 0.222 h⁻¹ | lag time tlag (mean) ([1]; strain MG1655 (Table 27)): 16.5 h | μ (mean) ([2]; growth rate of K-12 MG1655, 10 g/L diacid (sodium salt)): 0.686 h^1 | μ (mean) ([2]; growth rate of K-12 MG1655, 20 g/L diacid (sodium salt)): 0.639 h^1 | μ (mean) ([2]; growth rate of K-12 MG1655, 30 g/L diacid (sodium salt)): 0.526 h^1 | μ (mean) ([2]; growth rate of K-12 MG1655, 40 g/L diacid (sodium salt)): 0.410 h^1 | μ (mean) ([2]; growth rate of K-12 MG1655, 50 g/L diacid (sodium salt)): 0.287 h^1 | μ (mean) ([2]; growth rate of K-12 MG1655, 60 g/L diacid (sodium salt)): 0.154 h^1 | tlag (mean) ([2]; lag time of K-12 MG1655, 10 g/L diacid (sodium salt)): 5.9 h | tlag (mean) ([2]; lag time of K-12 MG1655, 20 g/L diacid (sodium salt)): 6.6 h | tlag (mean) ([2]; lag time of K-12 MG1655, 30 g/L diacid (sodium salt)): 8.0 h | tlag (mean) ([2]; lag time of K-12 MG1655, 40 g/L diacid (sodium salt)): 11.1 h | tlag (mean) ([2]; lag time of K-12 MG1655, 50 g/L diacid (sodium salt)): 16.9 h | tlag (mean) ([2]; lag time of K-12 MG1655, 60 g/L diacid (sodium salt)): 28.3 h
